Source: patent US11492361B2, “Compounds useful in HIV therapy” (GlaxoSmithKline Intellectual Property Development Limited, priority 2018, dated 2022)
Read-outs that look alike come from different tables or passages of the source.

How the values were obtained:
[1] = molecular target: Jurkat HIV-luciferase clones; experiment: Jurkat latency reversal assay; type: cell-based; conditions: Table 4 summary, read-out: Jurkat EC50
Method in brief: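 Three pooled Jurkat HIV-luciferase clones (C16, I15, N6; 5,000 cells/well, maintained with 500 nM EFV) exposed to 3-fold, 14-point titrations (10 μM to 2.1 pM, 0.5% DMSO) in duplicate for 48 h at 37 °C. Luciferase luminescence read; EC50 and maximal % activation versus vehicle from four-parameter logistic fit.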

[2] = test system: cell-associated HIV RNA (HIV gag RNA) in CD4+ T cells; experiment: Cell associated HIV RNA (caRNA) assay; type: cell-based, human; conditions: CD4+ T cells treated for 48 hours
From the text: During the productive phase of the viral life cycle, HIV produces a large number of differentially spliced transcripts collectively termed cell-associated HIV RNA (ca-HIV RNA) within some cells that are infected. In HIV-infected individuals on suppressive antiretroviral therapy (ART), changes in the levels of caHIV RNA is an accepted surrogate measure of the efficacy of HIV latency reversal.
To measure ca-HIVRNA, peripheral blood mononuclear cells (PBMCs) are isolated from leukocytes obtained by continuous-flow leukapheresis. Total CD4^+ T cells were isolated from PBMCs by negative selection using the EasySep Human CD4^+ T cell Enrichment kit (StemCell, Vancouver, Canada) per the manufacturer's recommendations. Resting CD4^+ T cells are isolated by negative selection with an immunomagnetic column as described previously (25) and either cryopreserved immediately or maintained for two days in IMDM medium (Gibco), 10% FBS, 2 μg/mL IL-2 (Peprotech), and antiretrovirals to prevent viral expansion.
For SMACm treatment, three to five replicates of 2-5×10^6 CD4^+ T cells were treated for 48 hours at 37° C. in 1 mL of RPMI medium 1640, 10% FBS, 10 μg/mL of enfuvirtide (Sigma), and 200 nM rilpivirine. 10 nM phorbol 12-myristate 13-acetate (PMA; Sigma) with 1 μM ionomycin (Sigma) was used as a positive control for LRA activation and 0.2% DMSO vehicle was used as a negative control. Following treatment, cells were lysed and RNA and DNA were co-extracted using an AIIPrep 96 RNA/DNA kit (Qiagen, Valencia, Calif.) per the manufacturer's instructions, adjusting the volume of lysis buffer to 0.6 mL, adding an on-column DNase I treatment (Qiagen) and eluting RNA in 50 μL of water. […]
HIV absolute HIV gag RNA copies per reaction were determined using an HIV gag gBlock qPCR standard corresponding to the DNA sequence of the qPCR product (5′-[…]-3′ (SEQ ID NO: 4); Integrated DNA Technologies), and copies were normalized to cell counts as determined by bright field microscopy. […]

CN[C@H](C)C(=O)N[C@@H](C(=O)N1CCC[C@@H]1C(=O)N[C@@H]1c2ccccc2C[C@@H]1OCC#CC#CCO[C@@H]1Cc2ccccc2[C@H]1NC(=O)[C@H]1CCCN1C(=O)[C@H](NC(=O)[C@@H](C)NC)C1CCCCC1)C1CCCCC1 [AZD5582, reference compound]
EC50 [1]: 8 nM
caRNA Lowest efficacious concentration observed [2]: 10

CC[C@H](NC(=O)[C@H](C)NC)C(=O)N1C[C@@H](O)C[C@H]1Cc1c(-c2[nH]c3cc(F)ccc3c2C[C@@H]2C[C@H](O)CN2C(=O)[C@H](CC)NC(=O)[C@H](C)NC)[nH]c2cc(F)ccc12 [Birinapant, reference compound]
EC50 ([1]; Homo sapiens, Jurkat, 48 h): 200 nM
caRNA Lowest efficacious concentration observed [2]: >1000

CN[C@H](C)C(=O)N[C@@H]1CCS[C@@H]2CC(C)(C)C(C(=O)N[C@@H]3CCCc4ccccc43)N2C1=O (stereo partly drawn) [SBI-0637142]
EC50 [1]: 1 nM
caRNA Lowest efficacious concentration observed [2]: >1000
